# Reference: patent publication US20230146507A1, “N-PHENYL-3-MERCAPTOPROPANAMIDE DERIVATIVES AS METALLO-BETA-LACTAMASE INHIBITORS FOR THE TREATMENT OF BACTERIAL INFECTIONS” (Helmholtz-Zentrum Für Infektionsforschung GmbH, priority 2020, published 2023)
# What was measured:
# E. coli NDM-5 (T2351) = experiment: MIC assay, clinical isolate; assay type: cell-based
# E. coli VIM-1 (T2544) = experiment: Checkerboard assay with imipenem, E. coli VIM-1 (T2544); assay type: cell-based
# Procedure: (§1) Fractional inhibitory concentration index (FICI). The checkerboard assay was performed to test for synergy in vitro. […] FICIs≤0.5 were defined as synergistic; FICIs from >0.5 to […] were defined as additive; FICIs from 1 to ≤4 were defined as indifferent and FICIs>4 were defined as antagonistic (Doern, C. D. When Does 2 plus 2 Equal 5? A Review of Antimicrobial Synergy Testing. J. Clin. Microbial. 2014, 52 (12), 4124-4128. https://doi.org/10.1128/JCM.01121-14).
# [1] = test system: P. aeruginosa VIM-1 (T2357); experiment: MIC assay, clinical isolate; assay type: cell-based; settings: intrinsic antimicrobial activity
# E. cloacae NDM-1 (T2311) = experiment: MIC assay, clinical isolate; assay type: cell-based
# IMP-7 = IMP-7 (Pseudomonas aeruginosa, UniProt Q93AU3); experiment: In vitro inhibition assay (kinetic fluorescence-based activity assay), IMP-7; assay type: biochemical; settings: Means and SD of at least two independent experiments
# Sequence of IMP-7 (Q93AU3 entry or part of it): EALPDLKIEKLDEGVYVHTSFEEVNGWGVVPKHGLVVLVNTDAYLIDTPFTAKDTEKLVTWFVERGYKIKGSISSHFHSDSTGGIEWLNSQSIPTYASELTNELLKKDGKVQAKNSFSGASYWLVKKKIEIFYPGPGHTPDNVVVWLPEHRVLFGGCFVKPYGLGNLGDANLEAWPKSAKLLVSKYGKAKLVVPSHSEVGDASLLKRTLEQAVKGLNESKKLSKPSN
# Procedure: (§2) Protein expression and purification. The expression of IMP-7, VIM-1, and NDM-1 was performed according to the protocol previously published by Klingler et al. (Klingler, F. M.; Wichelhaus, T. A.; Frank, D.; Cuesta-Bernal, J.; El-Delik, J.; Müller, H. F.; Sjuts, H.; Gottig, S.; Koenigs, A.; Pos, K. M.; et al. Approved Drugs Containing Thiols as Inhibitors of Metallo-β-Lactamases: Strategy to Combat Multidrug-Resistant Bacteria. J. Med. Chem. 2015, 58 (8), 3626-3630. https://doi.org/10.1021/jm501844d) with slight modifications.
# (§3) In vitro inhibition assay. Activity assays for NDM-1, VIM-1, VIM-2 and IMP-7 were carried out, as described by Klingler et al. Final protein concentrations were 0.5 nM (NDM-1), 4.0 nM (VIM-1), and 0.1 nM (IMP-7) in a 50 mM HEPES buffer (pH 7.5, 0.01% Triton X-100) Substrate (Fluorocillin™ (Invitrogen, Darmstadt, Germany) was dissolved in assay buffer to a final concentration of 888 nM. Test compounds were dissolved and pre-diluted in DMSO (final concentration: 1%). In a black polystyrol 96-well plate (Corning) an amount of […] of the respective inhibitor solution at different concentrations was incubated with […] of respective protein containing buffer for 30 minutes at room temperature. […] of substrate solution was added. The readout of the emitted fluorescence was started immediately (45 s for 30 cycles) using a Tecan Infinite F200Pro (Tecan Group Ltd; excitation at 495 nm and emission at 525 nm). Blank controls were performed without enzyme. Positive controls were performed with enzyme but without inhibitor. The inhibitory activity of each test compound was measured in three independent experiments. For calculation of IC50 values, data obtained from measurements with eight different inhibitor concentrations were used. For the evaluation of the sigmoidal dose response equation (variable slope with four parameters) GraphPad Prism 5 (GraphPad Software, La Jolla, Calif., USA) was used.
# E. coli IMP-1 (T2360) = experiment: Checkerboard assay with imipenem, E. coli IMP-1 (T2360); assay type: cell-based
# Procedure: as §1
# [2] = test system: S. marcescens NDM-1 (T2352); experiment: MIC assay, clinical isolate; assay type: cell-based
# [3] = test system: P. aeruginosa IMP-1 (T2325); experiment: MIC assay, clinical isolate; assay type: cell-based
# VIM-1 = biological target: T1, VIM-1 (Pseudomonas aeruginosa, UniProt A0A0F7KYQ8); experiment: In vitro inhibition assay (kinetic fluorescence-based activity assay), VIM-1; assay type: biochemical; settings: Means and SD of at least two independent experiments
# T1 construct: made in house
# Procedure: as §2, §3
# NDM-1 = biological target: T2, NDM-1 (Klebsiella pneumoniae, UniProt C7C422); experiment: In vitro inhibition assay (kinetic fluorescence-based activity assay), NDM-1; assay type: biochemical; settings: Means and SD of at least two independent experiments
# T2 construct: made in house
# T2 sequence (C7C422 29-270, looked up, species assumed): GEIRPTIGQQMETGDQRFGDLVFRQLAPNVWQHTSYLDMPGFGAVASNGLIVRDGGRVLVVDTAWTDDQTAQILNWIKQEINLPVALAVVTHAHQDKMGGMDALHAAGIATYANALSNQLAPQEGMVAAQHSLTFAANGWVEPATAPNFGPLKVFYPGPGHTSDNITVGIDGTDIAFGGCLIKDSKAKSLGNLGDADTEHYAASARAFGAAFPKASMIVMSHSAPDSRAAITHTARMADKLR
# Procedure: as §2, §3
# [4] = test system: different isolates from E. coli and P. aeruginosa; experiment: MIC assay, intrinsic antibacterial activity; assay type: cell-based; settings: compound alone
# E. coli NDM-7 (T2239) = experiment: MIC assay, clinical isolate; assay type: cell-based
# E. coli NDM-1 (T2359) = experiment: Checkerboard assay with imipenem, E. coli NDM-1 (T2359); assay type: cell-based; settings: for Imipenem MIC: Table 6
# Procedure: as §1
# E. cloacae GIM-1 (T2218) = experiment: MIC assay, clinical isolate; assay type: cell-based
# [5] = test system: A. baumannii OXA-23 (T2434); experiment: MIC assay, clinical isolate; assay type: cell-based; settings: intrinsic antimicrobial activity
# E. cloacae VIM-1 (T2353) = experiment: MIC assay, clinical isolate; assay type: cell-based
# E. coli KPC-2 (T2435) = experiment: MIC assay, clinical isolate; assay type: cell-based; settings: intrinsic antimicrobial activity
# [6] = test system: K. pneumoniae NDM-1 (T2301); experiment: MIC assay, clinical isolate; assay type: cell-based
# E. coli producing NDM-1 = experiment: MIC of imipenem in the presence of HIPS1686; assay type: cell-based; settings: Escherichia coli
# [7] = intrinsic antimicrobial activity
# [8] = Escherichia coli, read-out: Imipenem MIC
smiles,measurement,setting,value
"O=C(CCS)Nc1cccc(C(=O)O)c1 [HIPS5694, 3-(3-mercaptopropanamido)benzoic acid]",MIC (mg/L) Imipenem (+HIPS 5694 128 mg/L),E. coli NDM-5 (T2351); +HIPS 5694 128 mg/L,2 mg/L
same,HIPS 5694 MIG,E. coli NDM-5 (T2351); [7],>256 mg/L
same,Imipenem MIC,E. coli VIM-1 (T2544); +2 mg/L compound,32 µg/mL
same,Imipenem MIC,E. coli VIM-1 (T2544); +4 mg/L compound,32 µg/mL
same,Imipenem MIC,E. coli VIM-1 (T2544); +8 mg/L compound,32 µg/mL
same,Imipenem MIC,E. coli VIM-1 (T2544); +16 mg/L compound,16 µg/mL
same,Imipenem MIC,E. coli VIM-1 (T2544); +32 mg/L compound,16 µg/mL
same,Imipenem MIC,E. coli VIM-1 (T2544); +64 mg/L compound,8 µg/mL
same,Imipenem MIC,E. coli VIM-1 (T2544); +128 mg/L compound,0.5 µg/mL
same,HIPS 5694 MIG,[1],>256 mg/L
same,MIC (mg/L) Imipenem (+HIPS 5694 128 mg/L),E. cloacae NDM-1 (T2311); +HIPS 5694 128 mg/L,1 mg/L
same,HIPS 5694 MIG,E. cloacae NDM-1 (T2311); [7],>256 mg/L
same,IC50,IMP-7,6.4 ± 0.6 µM
same,Imipenem MIC,E. coli IMP-1 (T2360); +2 mg/L compound,2 µg/mL
same,Imipenem MIC,E. coli IMP-1 (T2360); +4 mg/L compound,2 µg/mL
same,Imipenem MIC,E. coli IMP-1 (T2360); +8 mg/L compound,1 µg/mL
same,Imipenem MIC,E. coli IMP-1 (T2360); +16 mg/L compound,1 µg/mL
same,Imipenem MIC,E. coli IMP-1 (T2360); +32 mg/L compound,1 µg/mL
same,Imipenem MIC,E. coli IMP-1 (T2360); +64 mg/L compound,0.5 µg/mL
same,Imipenem MIC,E. coli IMP-1 (T2360); +128 mg/L compound,0.5 µg/mL
same,MIC (mg/L) Imipenem (+HIPS 5694 128 mg/L),"[2]; +HIPS 5694 128 mg/L, S. marcescens NDM-1 (T2352)",4 mg/L
same,HIPS 5694 MIG,"[2]; intrinsic antimicrobial activity, S. marcescens NDM-1 (T2352)",>256 mg/L
same,HIPS 5694 MIG,"[3]; intrinsic antimicrobial activity, P. aeruginosa IMP-1 (T2325)",>256 mg/L
same,IC50,VIM-1,1.2 µM
same,IC50,NDM-1,4 µM
same,intrinsic antibacterial activity (MIC),[4],no intrinsic antibacterial activity
same,MIC (mg/L) Imipenem (+HIPS 5694 128 mg/L),"E. coli NDM-7 (T2239); +HIPS 5694 128 mg/L, E. coli NDM-7 (T2239)",2 mg/L
same,HIPS 5694 MIG,"E. coli NDM-7 (T2239); intrinsic antimicrobial activity, E. coli NDM-7 (T2239)",>256 mg/L
same,Imipenem MIC,E. coli NDM-1 (T2359); +2 mg/L compound,128 µg/mL
same,Imipenem MIC,E. coli NDM-1 (T2359); +4 mg/L compound,128 µg/mL
same,Imipenem MIC,E. coli NDM-1 (T2359); +8 mg/L compound,64 µg/mL
same,Imipenem MIC,E. coli NDM-1 (T2359); +16 mg/L compound,64 µg/mL
same,Imipenem MIC,E. coli NDM-1 (T2359); +32 mg/L compound,8 µg/mL
same,Imipenem MIC,E. coli NDM-1 (T2359); +64 mg/L compound,2 µg/mL
same,Imipenem MIC,E. coli NDM-1 (T2359); +128 mg/L compound,≤0.5 µg/mL
same,HIPS 5694 MIG,"E. cloacae GIM-1 (T2218); intrinsic antimicrobial activity, E. cloacae GIM-1 (T2218)",>256 mg/L
same,HIPS 5694 MIG,[5],>256 mg/L
same,MIC (mg/L) Imipenem (+HIPS 5694 128 mg/L),E. cloacae VIM-1 (T2353); +HIPS 5694 128 mg/L,2 mg/L
same,HIPS 5694 MIG,E. cloacae VIM-1 (T2353); [7],>256 mg/L
same,HIPS 5694 MIG,E. coli KPC-2 (T2435),>256 mg/L
same,MIC (mg/L) Imipenem (+HIPS 5694 128 mg/L),[6]; +HIPS 5694 128 mg/L,0.5 mg/L
same,HIPS 5694 MIG,[6]; [7],>256 mg/L
"C[C@@H](O)[C@H]1C(=O)N2C(C(=O)O)=C(SCCN=CN)C[C@H]12 [Imipenem, reference compound]",MIC,"E. coli VIM-1 (T2544); Escherichia coli, read-out: Imipenem MIC, without compound",32 µg/mL
same,Imipenem MIC,E. coli VIM-1 (T2544); without compound,64 µg/mL
same,MIC,E. coli IMP-1 (T2360); [8],2 µg/mL
same,MIC,"[2]; Serratia marcescens, read-out: MIC (mg/L) Imipenem",256 mg/L
same,MIC,"[3]; Pseudomonas aeruginosa, read-out: MIC (mg/L) Imipenem",64 mg/L
same,MIC,E. coli producing NDM-1,128 µg/mL
same,MIC,"E. coli NDM-7 (T2239); Escherichia coli, read-out: MIC (mg/L) Imipenem",32 mg/L
same,MIC,E. coli NDM-1 (T2359); [8],128 µg/mL
same,Imipenem MIC,E. coli NDM-1 (T2359); without compound,128 µg/mL
same,MIC,"E. cloacae GIM-1 (T2218); Enterobacter cloacae, read-out: MIC (mg/L) Imipenem",2 mg/L
